Assays:
[1] = test system: rat primary cortical neurons; assay: Neuron survival assay against NMDA insult (LDH release); type: cell-based; conditions: NMDA 20 μM; for protection of rat primary cortical neurons from NMDA insults (LDH release, fold change vs DMSO): compounds 10-30 μg/ml, 11 DIV; for cell death (LDH release, cell cytotoxicity vs DMSO): compound 10 μg/mL, DIV 11
Experimental: Primary cortical and hippocampal neurons were prepared from embryonic day 18 (E18) Sprague-Dawley rats. Neurons were plated on 24-well plate (TPP, Corning) at a density of 2×10^5 cells per well using Neurobasal medium (Invitrogen) supplemented with 2% B27 (Invitrogen). Neurons at 11-12 days in vitro (12 DIV) were subjected to drug treatment. Neurons were pretreated with the test compound for 2 hours prior to NMDA treatment. 0.1 μM (+)-MK-801 Hydrogen Maleate (Sigma) was added as a positive control. Briefly, the neurons were rinsed with Locke's solution (5 mM potassium chloride, 128 mM sodium chloride, 2.7 mM calcium chloride, 1 mM di-sodium hydrogen orthophosphate, 5 mM HEPES and 10 mM glucose in Milli-Q water) without Mg^2+, and incubated with addition of glycine (10 μM) for 15 minutes. After the incubation, the neurons were co-treated with the test compound (dissolved in Locke's plus glycine solution) and NMDA (20 μM; Sigma) for 20 minutes. Neurons were rinsed with Locke's plus Mg^2+ and replaced with fresh growth medium. The cell death was assayed and quantified using the lactate dehydrogenase release assay (Roche) after 24 hours.
Embryonic rat cortical neurons (11 DIV) were treated with NMDA (20 μM) in the absence or presence of the LC series of compounds (10-30 μg/ml). […] LDH release in the medium after overnight incubation was measured and fold change was calculated when compared to the solvent control, DMSO.
Embryonic rat cortical neurons (DIV 11) were treated with NMDA (20 μM) in the absence or presence of LC-01 or LC-02 (μg/mL). LDH release in the medium after overnight incubation was measured and cell cytotoxicity was calculated in percentage when compared to the solvent control, DMSO.
Embryonic rat cortical neurons (DIV 11) were treated with NMDA (20 μM) in the absence or presence of LC-06 (μg/mL). LDH release in the medium after overnight incubation was measured and cell cytotoxicity was calculated in percentage when compared to the solvent control, DMSO.
Embryonic rat cortical neurons (11 DIV) were treated with NMDA (20 μM) in the absence or presence of LC-24 or LC-25 (μg/mL). LDH release in the medium after overnight incubation was measured and cell cytotoxicity was calculated in percentage when compared to solvent control (DMSO).

[2] = test system: NMDA receptor; assay: Whole-cell patch clamp of NMDA-induced current in hippocampal neurons; type: cell-based, rat; conditions: compound 500 uM co-applied with NMDA 200 uM
Experimental: Hippocampal neurons were prepared from embryonic day 18 Sprague-Dawley rats. After the hippocampus had been removed from the brain, isolated cells were plated onto Poly d-Lysine (PDL) (P0899, Sigma)-coated 35 mm dishes (153066, NUNC) at a density of 3×10^5 cell per plate using Neurobasal Medium (NB) (21103-049, Gibco) with B27 supplement (17504-044, Gibco), penicillin/streptomycin (15140, Gibco) and 1 mM L-glutamine (25030, Gibco). The cell culture was incubated at 37° C. in a humidified atmosphere of 5% CO2 in air. Half of the medium was changed with NB, B27 and 50 μM L-glutamine every 2 to 3 days. On day 12 in vitro (12 DIV), whole-cell patch clamp was performed. The internal solution contained 120 mM cesium chloride, 20 mM tetraethylammonium chloride, 2 mM magnesium chloride, 1 mM calcium chloride and 10 mM HEPES (pH 7.2). The external solution contained 137 mM sodium chloride, 1 mM sodium bicarbonate, 0.34 mM sodium phosphate dibasic, 5.37 mM potassium chloride, 0.44 mM potassium phosphate monobasic, 2.5 mM HEPES (pH 7.4) and 22.2 mM glucose. Samples mixed with 50 μM NMDA (M3262, Sigma) were arranged in linear array of up to 8 individual controlled pipes (List Medical, Germany) which were connected to solution reservoirs. Memantine (10 μM, M9292, Sigma) was used as a positive control. Pipettes were fire-polished to produce a pipette resistance of 3-5 MΩ. Holding potential of patched cells was kept at −80 mV and currents were recorded using Axopatch-200B amplifier (Axon Instruments, USA). Tetrodotoxin (5 μM) and bicuculline methiodide (20 μM) (0109, Tocris) were present in the bath solution to block synaptic transmission mediated by voltage-gated sodium channels and […], respectively. Data was analyzed by pClamp9 software and percentage of inhibition on NMDA-induced current was represented in comparison to solvent control.
The NMDA receptor is a gated ion channel, which allows inflow of current during a nerve impulse. Antagonists to the receptor would prevent the inflow of current.
In FIG. 1A, hippocampal neurons from embryonic day 18 rats were isolated, trypsinized, plated onto 35-mm plates at a density of 3×10^4 cells/plate and cultured in Neurobasal medium (NB) supplemented with B27 nutrient. Rat hippocampal neurons (10-14 DIV) were treated with NMDA (50 μM) in the absence or presence of the compound LC-02 (10 μg/mL). Data is presented as % of NMDA-induced current. DMSO is the solvent control.
In FIG. 1B, NMDA antagonistic effect of LC-02 on current responses of a single hippocampal neuron. NMDA (200 uM) was applied for 2.5 sec every 30 sec but these inter-response intervals have been deleted from the above figure for a better resolution of the kinetics of individual responses (blank space in trace). LC-02 (500 uM) was co-applied with NMDA.
In FIG. 1C, effects of LC-02 on pooled NMDA current responses. Normalized peak and plateau currents are shown in the absence (DMSO) and presence of LC-02.
In FIG. 8, (a) NMDA antagonistic effect of LC-06 on current responses of a single hippocampal neuron. NMDA (200 uM) was applied for 2.5 sec every 30 sec but these inter-response intervals have been deleted from the above figure for a better resolution of the kinetics of individual responses (blank space in trace). LC-06 (500 uM) was co-applied with NMDA. […] (b) Effects of LC-06 on pooled NMDA current responses. Normalized peak and plateau currents are shown in the absence (DMSO) and presence of LC-06.
In FIG. 9, (a) NMDA antagonistic effect of LC-24 on current responses of a single hippocampal neuron. NMDA (200 uM) was applied for 2.5 sec every 30 sec but these inter-response intervals have been deleted from the above figure for a better resolution of the kinetics of individual responses (blank space in trace). LC-24 (500 uM) was co-applied with NMDA. […] (b) Effects of LC-24 on pooled NMDA current responses. Normalized peak and plateau currents are shown in the absence (DMSO) and presence of LC-24. […]

CC[C@@H]1N[C@@H](CC(C)C)C(CC)(CC)O1 [LC-01]
protection of rat primary cortical neurons from NMDA insults (LDH release, fold change vs DMSO) [1]: significantly protected | cell death (LDH release, cell cytotoxicity vs DMSO) [1]: cell death was markedly reduced

CCC(C)[C@@H]1N[C@@H](CC)OC1(CC)CC (stereo partly shown) [LC-09]
protection of rat primary cortical neurons from NMDA insults (LDH release, fold change vs DMSO) [1]: weaker neuroprotective effects

CCC(C)[C@@H]1N[C@H](CC)OC1(CC)CC (stereo partly shown) [LC-10]
protection of rat primary cortical neurons from NMDA insults (LDH release, fold change vs DMSO) [1]: weaker neuroprotective effects

CCC[C@@H]1N[C@@H](C(C)CC)C(CC)(CC)O1 (stereo partly shown) [LC-11]
protection of rat primary cortical neurons from NMDA insults (LDH release, fold change vs DMSO) [1]: weaker neuroprotective effects

CCC[C@H]1N[C@@H](C(C)CC)C(CC)(CC)O1 (stereo partly shown) [LC-12]
protection of rat primary cortical neurons from NMDA insults (LDH release, fold change vs DMSO) [1]: weaker neuroprotective effects

CCCC1(CCC)O[C@@H](CC)N[C@H]1C(C)CC (stereo partly shown) [LC-14]
protection of rat primary cortical neurons from NMDA insults (LDH release, fold change vs DMSO) [1]: weaker neuroprotective effects

CCC[C@H]1N[C@@H](C(C)CC)C(CCC)(CCC)O1 (stereo partly shown) [LC-15]
protection of rat primary cortical neurons from NMDA insults (LDH release, fold change vs DMSO) [1]: weaker neuroprotective effects

CCCC1(CCC)O[C@@H](c2ccccc2)N[C@H]1C(C)CC (stereo partly shown) [LC-16]
protection of rat primary cortical neurons from NMDA insults (LDH release, fold change vs DMSO) [1]: weaker neuroprotective effects

CCC[C@H]1N[C@@H](Cc2ccccc2)C(CC)(CC)O1 [LC-25]
pooled NMDA current responses (normalized peak and plateau currents) ([2]; vs DMSO, n=6): significantly inhibits NMDA-induced current | recovery of NMDA-induced current after compound was washed out ([2]; single hippocampal neuron): Partial recovery of NMDA-induced current | protection of rat primary cortical neurons from NMDA insults (LDH release, fold change vs DMSO) [1]: significantly protected | cell death (LDH release, cell cytotoxicity vs DMSO) [1]: cell death was markedly reduced

From patent US8722714B2, “Oxazolidine derivatives as NMDA antagonists” (The Honk Kong University of Science and Technology, priority 2008, dated 2014)
